# Laboratory results reported in publication PMC7870075, “Physicochemical properties and formulation development of a novel compound inhibiting Staphylococcus aureus biofilm formation” (PLoS ONE, 2021).
# Read-outs that look alike come from different tables or passages of the source.
# Assay: Solubility in organic solvents
# Assay type: physicochemical
# Details: thermodynamic from solid
# Protocol: The concentration of CCG-211790 in organic solvents was carried out on a LabTech BlueStar plus UV-Vis spectrophotometer (Hopkinton, MA, USA) using dimethylformamide (DMF) as a reference solvent. UV-Vis absorption spectra were recorded in a wavelength range from 200–500 nm with samples placed in a quartz cuvette. CCG-211790 concentrations in organic solvents were determined based on the absorption of CCG-211790 at characteristic wavelength of 314 nm. Calibration curves were established giving a correlation coefficient more than 0.999. The solubility of CCG-211790 in organic solvents were also determined. CCG-211790 bulk powder was added in excess to 0.1–1 mL of an organic solvent. After ultrasonication for 30 min and incubation for 24 h at room temperature on a shaking platform to reach the saturation status, sample aliquots (0.5 mL) were centrifuged at 10,400 ×g for 10 min, and 10 μL of supernatant was diluted 500–50,000-fold with dimethylformamide (DMF). The saturation solubility of CCG-211790 in various organic solvents was determined via ultraviolet-visible spectrophotometry (UV-Vis) with DMF as the reference solvent.
compound,measurement,setting,value
"COc1ccc2c(c1)-c1nc(SCC(F)(F)F)n(C)c(=O)c1C(C)(C)C2 [CCG-211790, 9-Methoxy-3,5,5-trimethyl-2-((2,2,2-trifluoroethyl)thio)-5,6-dihydrobenzo[h]quinazolin-4(3H)-one]",solubility at 24 h,"oil or lipid, Canola oil, room temperature, read-out: Solubility",24.7 mg/mL
same,solubility at 24 h,"oil or lipid, Coconut oil, room temperature, read-out: Solubility",37.2 mg/mL
same,solubility at 24 h,"oil or lipid, Oleic acid, room temperature, read-out: Solubility",24.1 mg/mL
same,solubility at 24 h,"oil or lipid, Olive oil, room temperature, read-out: Solubility",24.3 mg/mL
same,solubility at 24 h,"oil or lipid, Peanut oil, room temperature, read-out: Solubility",22.3 mg/mL
same,solubility at 24 h,"oil or lipid, Safflower oil, room temperature, read-out: Solubility",22.7 mg/mL
same,solubility at 24 h,"oil or lipid, Sesame oil, room temperature, read-out: Solubility",22.7 mg/mL
same,solubility at 24 h,"oil or lipid, Sunflower oil, room temperature, read-out: Solubility",20 mg/mL
same,solubility at 24 h,"oil or lipid, range over the edible oils of Table 2, read-out: solubility in edible oils",20 to 37.2 mg/mL
same,solubility at 24 h,"organic solvent or mixture, Acetonitrile, room temperature, read-out: Solubility",57.6 mg/mL
same,solubility at 24 h,"organic solvent or mixture, Dimethyl sulfoxide, room temperature, read-out: Solubility",66.7 mg/mL
same,solubility at 24 h,"organic solvent or mixture, Dimethylacetamide, room temperature, read-out: Solubility",278 mg/mL
same,solubility at 24 h,"organic solvent or mixture, Dimethylformamide, room temperature, read-out: Solubility",215 mg/mL
same,solubility at 24 h,"organic solvent or mixture, Ethanol, room temperature, read-out: Solubility",18.2 mg/mL
same,solubility at 24 h,"organic solvent or mixture, Glycerin, room temperature, read-out: Solubility",1.3 mg/mL
same,solubility at 24 h,"organic solvent or mixture, Isopropyl alcohol, room temperature, read-out: Solubility",15.4 mg/mL
